Experimental data: US8993554B2, “Tetrahydroquinoline derivatives useful as bromodomain inhibitors” (GlaxoSmithKline LLC, priority 2011, dated 2015)
Where a name gives a salt, the structure may show the parent alone.

Tested on: LPS induced IL-6 secretion from whole blood
Experiment: Measurement of LPS Induced IL-6 Secretion from Whole Blood
Format: cell-based
Details: IL-6 by immunoassay, LPS 200 ng/ml, 24 hours
Description: Activation of monocytic cells by agonists of toll-like receptors such as bacterial lipopolysaccharide (LPS) results in production of key inflammatory mediators including IL-6. Such pathways are widely considered to be central to the pathophysiology of a range of auto-immune and inflammatory disorders.
Compounds to be tested are diluted to give a range of appropriate concentrations of which 1 μl of the diluted stocks is added to a 96 well plate. Following addition of whole blood (130 μl) the plates are incubated at 37 degrees (5% CO2) for 30 min before the addition of 10 μl of 2.8 ug/ml LPS, diluted in complete RPMI 1640 (final concentration=200 ng/ml), to give a total volume of 140 μl per well. After further incubation for 24 hours at 37 degrees, 140 μl of PBS are added to each well. The plates are sealed, shaken for 10 minutes and then centrifuged (2500 rpm×10 min). 100 μl of the supernatant are removed and IL-6 levels assayed by immunoassay (typically by MesoScale Discovery technology) either immediately or following storage at −20 degrees. Concentration response curves for each compound was generated from the data and an IC50 value was calculated.

SMILES | IC50 [nM]
CC(=O)N1c2ccc(-c3ccc(CCC(=O)NCCO)cc3)cc2[C@H](Nc2ccc(C#N)cn2)C[C@@H]1C [Example 2, 3-(4-((2S,4R)-1-Acetyl-4-((5-cyanopyridin-2-yl)amino)-2-methyl-1,2,3,4-tetrahydroquinolin-6-yl)phenyl)-N-(2-hydroxyethyl)propanamide] | 50.1 to 3160
CC(=O)N1c2ccc(-c3ccc(CC(=O)NCCO)cc3)cc2[C@H](Nc2ccc(C#N)cn2)C[C@@H]1C [Example 3, 2-(4-((2S,4R)-1-Acetyl-4-((5-cyanopyridin-2-yl)amino)-2-methyl-1,2,3,4-tetrahydroquinolin-6-yl)phenyl)-N-(2-hydroxyethyl)acetamide] | 50.1 to 3160
CC(=O)N1c2ccc(-c3ccc(CC(=O)NCCN(C)C)cc3)cc2[C@H](Nc2ccc(C#N)cn2)C[C@@H]1C [Example 5, 2-(4-((2S,4R)-1-Acetyl-4-((5-cyanopyridin-2-yl)amino)-2-methyl-1,2,3,4-tetrahydroquinolin-6-yl)phenyl)-N-(2-(dimethylamino)ethyl)acetamide] | 50.1 to 3160
CC(=O)N1c2ccc(-c3ccc(C(=O)NCCN)cc3)cc2[C@H](NC(=O)OC(C)C)C[C@@H]1C [Example 6, Isopropyl ((2S,4R)-1-acetyl-6-(4-((2-aminoethyl)carbamoyl)phenyl)-2-methyl-1,2,3,4-tetrahydroquinolin-4-yl)carbamate hydrochloride] | 50.1 to 3160
CC(=O)N1c2ccc(-c3ccc(C(=O)NCCN(C)C)cc3)cc2[C@H](NC(=O)OC(C)C)C[C@@H]1C [Example 7, Isopropyl ((2S,4R)-1-acetyl-6-(4-((2-(dimethylamino)ethyl)carbamoyl)phenyl)-2-methyl-1,2,3,4-tetrahydroquinolin-4-yl)carbamate] | 50.1 to 3160
CC(=O)N1c2ccc(-c3ccc(CC(=O)NCCN)cc3)cc2[C@H](NC(=O)OC(C)C)C[C@@H]1C [Example 9, Isopropyl ((2S,4R)-1-acetyl-6-(4-(2-((2-aminoethyl)amino)-2-oxoethyl)phenyl)-2-methyl-1,2,3,4-tetrahydroquinolin-4-yl)carbamate hydrochloride] | 50.1 to 3160
CC(=O)N1c2ccc(-c3ccc(C(=O)NCCN(C)C)cn3)cc2[C@H](Nc2ccc(C#N)cn2)C[C@@H]1C [Example 10, 6-((2S,4R)-1-acetyl-4-((5-cyanopyridin-2-yl)amino)-2-methyl-1,2,3,4-tetrahydroquinolin-6-yl)-N-(2-(dimethylamino)ethyl)nicotinamide] | 50.1 to 3160
CC(=O)N1c2ccc(-c3ccc(C(=O)NC(CO)CO)cn3)cc2[C@H](Nc2ccc(C#N)cn2)C[C@@H]1C [Example 11, 6-((2S,4R)-1-acetyl-4-((5-cyanopyridin-2-yl)amino)-2-methyl-1,2,3,4-tetrahydroquinolin-6-yl)-N-(1,3-dihydroxypropan-2-yl)nicotinamide] | 50.1 to 3160
CC(=O)N1c2ccc(-c3ccc(C(=O)NCCO)cn3)cc2[C@H](Nc2ccc(C#N)cn2)C[C@@H]1C [Example 12, 6-((2S,4R)-1-acetyl-4-((5-cyanopyridin-2-yl)amino)-2-methyl-1,2,3,4-tetrahydroquinolin-6-yl)-N-(2-hydroxyethyl)nicotinamide] | 50.1 to 3160
CC(=O)N1c2ccc(-c3ccc(C(=O)NCCO)cc3)cc2[C@H](Nc2ccc(C#N)cn2)C[C@@H]1C [Example 14, 4-((2S,4R)-1-acetyl-4-((5-cyanopyridin-2-yl)amino)-2-methyl-1,2,3,4-tetrahydroquinolin-6-yl)-N-(2-hydroxyethyl)benzamide] | 50.1 to 3160
CC(=O)N1c2ccc(-c3ccc(C(=O)NC(CO)CO)cc3)cc2[C@H](Nc2ccc(C#N)cn2)C[C@@H]1C [Example 15, 4-((2S,4R)-1-acetyl-4-((5-cyanopyridin-2-yl)amino)-2-methyl-1,2,3,4-tetrahydroquinolin-6-yl)-N-(1,3-dihydroxypropan-2-yl)benzamide] | 50.1 to 3160
CC(=O)N1c2ccc(-c3ccc(C(=O)NCCN(C)C)cc3)cc2[C@H](Nc2ccc(C#N)cn2)C[C@@H]1C [Example 16, 4-((2S,4R)-1-acetyl-4-((5-cyanopyridin-2-yl)amino)-2-methyl-1,2,3,4-tetrahydroquinolin-6-yl)-N-(2-(dimethylamino)ethyl)benzamide dihydrochloride] | 50.1 to 3160
CC(=O)N1c2ccc(-c3ccc(C(=O)NCCO)cc3)cc2[C@H](Nc2ccccn2)C[C@@H]1C [Example 19, 4-((2S,4R)-1-acetyl-2-methyl-4-(pyridin-2-ylamino)-1,2,3,4-tetrahydroquinolin-6-yl)-N-(2-hydroxyethyl)benzamide] | 50.1 to 3160
CC(=O)N1c2ccc(-c3ccc(C(=O)NCCN(C)C)cc3)cc2[C@H](Nc2ccccn2)C[C@@H]1C [Example 20, 4-((2S,4R)-1-acetyl-2-methyl-4-(pyridin-2-ylamino)-1,2,3,4-tetrahydroquinolin-6-yl)-N-(2-(dimethylamino)ethyl)benzamide] | 50.1 to 3160
CC(=O)N1c2ccc(-c3ccc(C(=O)NC(CO)CO)cc3)cc2[C@H](Nc2ccccn2)C[C@@H]1C [Example 21, 4-((2S,4R)-1-acetyl-2-methyl-4-(pyridin-2-ylamino)-1,2,3,4-tetrahydroquinolin-6-yl)-N-(1,3-dihydroxypropan-2-yl)benzamide] | 50.1 to 3160
CC(=O)N1c2ccc(-c3ccc(C(=O)NCCN)cc3)cc2[C@H](Nc2ccccn2)C[C@@H]1C [Example 22, 4-((2S,4R)-1-acetyl-2-methyl-4-(pyridin-2-ylamino)-1,2,3,4-tetrahydroquinolin-6-yl)-N-(2-aminoethyl)benzamide] | 50.1 to 3160
CC(=O)N1c2ccc(-c3ccc(C(=O)NCCN(C)C)cn3)cc2[C@H](Nc2ccccn2)C[C@@H]1C [Example 23, 6-((2S,4R)-1-acetyl-2-methyl-4-(pyridin-2-ylamino)-1,2,3,4-tetrahydroquinolin-6-yl)-N-(2-(dimethylamino)ethyl)nicotinamide] | 50.1 to 3160
CC(=O)N1c2ccc(-c3ccc(C(=O)NCCO)cn3)cc2[C@H](Nc2ccccn2)C[C@@H]1C [Example 24, 6-((2S,4R)-1-acetyl-2-methyl-4-(pyridin-2-ylamino)-1,2,3,4-tetrahydroquinolin-6-yl)-N-(2-hydroxyethyl)nicotinamide] | 50.1 to 3160
CC(=O)N1c2ccc(-c3ccc(C(=O)NC(CO)CO)cn3)cc2[C@H](Nc2ccccn2)C[C@@H]1C [Example 25, 6-((2S,4R)-1-acetyl-2-methyl-4-(pyridin-2-ylamino)-1,2,3,4-tetrahydroquinolin-6-yl)-N-(1,3-dihydroxypropan-2-yl)nicotinamide] | 50.1 to 3160
CC(=O)N1c2ccc(-c3ccc(C(=O)NCCN(C)C)nc3)cc2[C@H](Nc2ccc(C#N)cn2)C[C@@H]1C [Example 28, 5-((2S,4R)-1-acetyl-4-((5-cyanopyridin-2-yl)amino)-2-methyl-1,2,3,4 tetrahydroquinolin-6-yl)-N-(2-(dimethylamino)ethyl)picolinamide] | 50.1 to 3160
CC(=O)N1c2ccc(-c3ccc(C(=O)NCCO)nc3)cc2[C@H](Nc2ccc(C#N)cn2)C[C@@H]1C [Example 29, 5-((2S,4R)-1-acetyl-4-((5-cyanopyridin-2-yl)amino)-2-methyl-1,2,3,4-tetrahydroquinolin-6-yl)-N-(2-hydroxyethyl)picolinamide] | 50.1 to 3160
CC(=O)N1c2ccc(-c3ccc(C(=O)NC(CO)CO)nc3)cc2[C@H](Nc2ccc(C#N)cn2)C[C@@H]1C [Example 30, 5-((2S,4R)-1-acetyl-4-((5-cyanopyridin-2-yl)amino)-2-methyl-1,2,3,4tetrahydroquinolin-6-yl)-N-(1,3-dihydroxypropan-2-yl)picolinamide] | 50.1 to 3160
CC(=O)N1c2ccc(-c3ccc(C(=O)NCCCO)nc3)cc2[C@H](Nc2ccc(C#N)cn2)C[C@@H]1C [Example 31, 5-((2S,4R)-1-acetyl-4-((5-cyanopyridin-2-yl)amino)-2-methyl-1,2,3,4-tetrahydroquinolin-6-yl)-N-(3-hydroxypropyl)picolinamide] | 50.1 to 3160
CC(=O)N1c2ccc(-c3ccc(C(=O)N[C@H](C)CO)nc3)cc2[C@H](Nc2ccc(C#N)cn2)C[C@@H]1C [Example 32, 5-((2S,4R)-1-acetyl-4-((5-cyanopyridin-2-yl)amino)-2-methyl-1,2,3,4-tetrahydroquinolin-6-yl)-N—((R)-1-hydroxypropan-2-yl)picolinamide] | 50.1 to 3160
CC(=O)N1c2ccc(-c3ccc(C(=O)N4CCN(C)CC4)nc3)cc2[C@H](Nc2ccc(C#N)cn2)C[C@@H]1C [Example 34, 6-(((2S,4R)-1-acetyl-2-methyl-6-(6-(4-methylpiperazine-1-carbonyl)pyridin-3-yl)-1,2,3,4-tetrahydroquinolin-4-yl)amino)nicotinonitrile] | 50.1 to 3160
CC(=O)N1c2ccc(-c3ccc(C(=O)N4CC(N)C4)nc3)cc2[C@H](Nc2ccc(C#N)cn2)C[C@@H]1C [Example 37, 6-(((2S,4R)-1-acetyl-6-(6-(3-aminoazetidine-1-carbonyl)pyridin-3-yl)-2-methyl-1,2,3,4-tetrahydroquinolin-4-yl)amino)nicotinonitrile] | 50.1 to 3160
CC(=O)N1c2ccc(-c3ccc(C(=O)NCCN(C)C)cc3)cc2[C@H](Nc2ccc(Cl)cc2)C[C@@H]1C [Example 38, 4-((2S,4R)-1-acetyl-4-((4-chlorophenyl)amino)-2-methyl-1,2,3,4-tetrahydroquinolin-6-yl)-N-(2-(dimethylamino)ethyl)benzamide] | 50.1 to 3160
